# From patent US8809331B2 (Genentech, Inc., priority 2011, dated 2014)
# Target: T1, LRRK2 (Homo sapiens, UniProt Q5S007, G2019S)
# T1 construct: purchased Invitrogen PV4882
# Experiment: In Vitro LRRK2 LabChip Assay (LRRK2 Ki)
# Format: biochemical
# Conditions: Table 5 compounds (formula I)
# Protocol: In Vitro LRRK2 LabChip Assay
# This assay was used to determine a compound's potency in inhibiting activity of LRRK2 by determining, Kiapp, IC50, or percent inhibition values. In a polypropylene plate, LRRK2, fluorescently-labeled peptide substrate, ATP and test compound were incubated together. Using a LabChip 3000 (Caliper Life Sciences), after the reaction the substrate was separated by capillary electrophoresis into two populations: phosphorylated and unphosphorylated. The relative amounts of each were quantitated by fluorescence intensity. LRRK2 Ki was determined according to the equation: Y=V0*(1−((x+Ki*(1+S/Km)+Et)/(2*Et)−(((x+Ki*(1+S/Km)+Et)^2−(4*Et*x))^0.5)/(2*Et))). Ki values in Table 4 and elsewhere herein are shown in μM.
# Assay conditions and materials used were as follows:
# LRRK2 Wild type in 5 mM MgCl2: 15 nM (Invitrogen lot #500607F)
# Kinase reaction time: 2 hours
# Wild type in 5 mM MgCl2: 80 μM
# Solid Support: Black 50 μL volume polypropylene 384 well plate (MatriCal cat # MP101-1-PP)
# Kinase: LRRK2 G2019S (Invitrogen cat #PV4882). • LRRK2 Wild type (Invitrogen cat #PV4874).
# Substrate: 5FAM-[…]-CONH2
# Non-binding plate: 384 well clear V-bottom polypropylene plates (Greiner cat #781280).
# ATP: 10 mM ATP (Cell Signaling cat #9804).
# Coating Reagent #3: Coating Reagent #3 (Caliper).
# Complete Reaction Buffer: H2O/25 mM Tris, pH 8.0/5 mM MgCl2/2 mM DTT/0.01% Triton X-100.
# Stop Solution: H2O/100 mM HEPES, pH 7.2/0.015% Brij-35/0.2% Coating Reagent #3/20 mM EDTA.
# Separation Buffer: H2O/100 mM HEPES, pH 7.2/0.015% Brij-35/0.1% Coating Reagent #3/1:200 Coating Reagent #8/10 mM EDTA/5% DMSO.
# Compound Plate Preparation:
# For serial dilutions, 34.6 μl DMSO was added to columns 3-24. For the assay controls, 37.5 μl DMSO was added to columns 1 and 2 of rows A and P. a, d and 50 μl 25 μM G-028831 (Staurosporine) was added to columns 1 and 2, row B. For the samples: to start at 100 μM, 37.5 μl DMSO was to columns 1 and 2, then 12.5 μl 10 mM compound; to start at 10 μM, 78 μl DMSO was added to columns 1 & 2, then 2 μl 10 mM compound; and to start at 1 μM, 25 μM compound (2 μl 10 mM cmpd+798 μl DMSO) was added to empty columns 1 and 2. A Precision instrument was used to perform 1:3.16 serial dilutions (“PLK_BM_serial_halflog”).
# ATP was diluted to 282.1 μM in Complete Kinase Buffer (final concentration was 130 μM).
# Total and Blank Preparation:
# In Complete Reaction Buffer, substrate was diluted to 4 μM. Equal volumes of Complete Reaction Buffer and 4 μM substrate were combined to obtain the blank. Equal volumes of Complete Reaction Buffer and 4 μM substrate were combined and to the combined solution was added 2× final LRRK2 concentration.
# To a 50 μl polypropylene plate, 5 μl/well buffer/substrate was added by hand to Blank wells. A Biomek FX was used to start the kinase reaction (“PLK SAR 23 ATP”). The following were added to the appropriate wells:
# 5 μl/well compound/ATP in Assay Plate;
# 5 μl/well kinase/substrate in Assay Plate;
# The plate was incubated for 2 hours in the dark. Biomek FX was used to stop the kinase reaction (“PLK Stop”), and 10 μl/well Stop solution was added to the Assay Plate. Results were read on the LabChip 3000.
# The LabChip 3000 was run using the job “LRRK2 IC50” with the following job settings:
# Downstream voltage: −500 V
# Upstream voltage: −2350 V
# Post sample buffer sip time: 75 seconds
# Post dye buffer sip time: 75 seconds
# Final delay time: 200 seconds
# T1 sequence (Q5S007 whole entry G2019S): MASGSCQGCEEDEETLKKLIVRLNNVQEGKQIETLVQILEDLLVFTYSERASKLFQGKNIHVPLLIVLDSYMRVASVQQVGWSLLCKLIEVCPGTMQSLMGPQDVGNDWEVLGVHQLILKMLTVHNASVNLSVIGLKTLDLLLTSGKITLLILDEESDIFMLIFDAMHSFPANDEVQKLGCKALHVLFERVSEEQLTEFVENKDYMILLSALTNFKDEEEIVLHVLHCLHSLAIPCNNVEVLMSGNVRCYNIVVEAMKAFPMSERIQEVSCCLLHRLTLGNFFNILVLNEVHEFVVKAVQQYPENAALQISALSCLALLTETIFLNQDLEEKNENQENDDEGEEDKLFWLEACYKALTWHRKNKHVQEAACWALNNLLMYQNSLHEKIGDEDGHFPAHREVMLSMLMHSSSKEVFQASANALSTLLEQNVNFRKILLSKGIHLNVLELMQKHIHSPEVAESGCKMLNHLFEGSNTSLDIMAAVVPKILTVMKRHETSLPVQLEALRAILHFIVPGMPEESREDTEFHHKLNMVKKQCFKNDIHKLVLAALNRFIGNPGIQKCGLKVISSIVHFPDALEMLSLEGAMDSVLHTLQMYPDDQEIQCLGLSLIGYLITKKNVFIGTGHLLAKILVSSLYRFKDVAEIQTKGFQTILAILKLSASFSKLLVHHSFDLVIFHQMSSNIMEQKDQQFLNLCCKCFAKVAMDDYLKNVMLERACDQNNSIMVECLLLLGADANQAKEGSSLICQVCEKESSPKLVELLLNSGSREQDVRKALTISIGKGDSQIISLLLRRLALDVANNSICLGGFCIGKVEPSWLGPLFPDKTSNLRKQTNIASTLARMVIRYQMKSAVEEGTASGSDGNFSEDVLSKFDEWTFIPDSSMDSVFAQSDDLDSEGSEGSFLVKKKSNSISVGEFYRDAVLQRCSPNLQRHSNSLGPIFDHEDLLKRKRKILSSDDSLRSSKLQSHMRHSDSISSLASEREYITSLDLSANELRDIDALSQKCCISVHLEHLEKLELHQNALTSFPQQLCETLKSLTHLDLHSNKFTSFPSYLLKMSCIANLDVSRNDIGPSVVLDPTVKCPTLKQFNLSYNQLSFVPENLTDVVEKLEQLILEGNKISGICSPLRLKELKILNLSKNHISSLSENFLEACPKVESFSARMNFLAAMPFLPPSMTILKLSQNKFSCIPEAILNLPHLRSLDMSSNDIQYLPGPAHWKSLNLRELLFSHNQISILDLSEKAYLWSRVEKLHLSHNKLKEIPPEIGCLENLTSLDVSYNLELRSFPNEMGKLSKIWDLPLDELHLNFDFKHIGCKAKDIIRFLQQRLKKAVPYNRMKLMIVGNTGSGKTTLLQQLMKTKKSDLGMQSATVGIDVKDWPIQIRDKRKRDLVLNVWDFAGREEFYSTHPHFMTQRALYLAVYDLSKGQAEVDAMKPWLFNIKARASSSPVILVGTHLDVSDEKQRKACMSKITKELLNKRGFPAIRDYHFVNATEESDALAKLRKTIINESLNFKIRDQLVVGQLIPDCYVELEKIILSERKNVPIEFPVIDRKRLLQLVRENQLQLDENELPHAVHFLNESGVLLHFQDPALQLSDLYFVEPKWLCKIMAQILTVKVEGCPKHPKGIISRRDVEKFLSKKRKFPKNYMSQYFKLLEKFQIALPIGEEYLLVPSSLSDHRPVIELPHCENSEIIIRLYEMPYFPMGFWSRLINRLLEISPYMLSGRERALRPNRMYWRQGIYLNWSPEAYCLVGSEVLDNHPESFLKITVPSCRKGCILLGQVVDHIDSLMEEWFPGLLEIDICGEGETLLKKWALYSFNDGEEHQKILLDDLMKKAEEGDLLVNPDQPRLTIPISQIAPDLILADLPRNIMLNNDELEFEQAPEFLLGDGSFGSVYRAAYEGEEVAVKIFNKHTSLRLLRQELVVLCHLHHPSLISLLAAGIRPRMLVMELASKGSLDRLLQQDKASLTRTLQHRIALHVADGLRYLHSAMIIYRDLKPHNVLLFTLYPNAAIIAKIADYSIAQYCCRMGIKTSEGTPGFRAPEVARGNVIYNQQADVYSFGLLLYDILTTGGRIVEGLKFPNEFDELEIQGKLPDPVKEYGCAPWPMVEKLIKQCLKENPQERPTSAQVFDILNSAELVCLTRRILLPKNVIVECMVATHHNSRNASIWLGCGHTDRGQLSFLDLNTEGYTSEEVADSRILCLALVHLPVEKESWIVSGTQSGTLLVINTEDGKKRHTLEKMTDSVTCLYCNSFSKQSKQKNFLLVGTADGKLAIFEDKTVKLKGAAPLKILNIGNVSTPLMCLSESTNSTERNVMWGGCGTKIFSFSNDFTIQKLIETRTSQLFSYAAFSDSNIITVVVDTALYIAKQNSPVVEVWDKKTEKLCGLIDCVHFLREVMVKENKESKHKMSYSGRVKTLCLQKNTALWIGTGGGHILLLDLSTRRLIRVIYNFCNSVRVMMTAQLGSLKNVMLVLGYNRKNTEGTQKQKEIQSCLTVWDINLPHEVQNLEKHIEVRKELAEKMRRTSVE
row,SMILES,Ki [nM]
1,"CNc1nc(Nc2cc(OC)c(C(=O)N3CCN(CCOC)CC3)cc2Cl)ncc1C(F)(F)F [Compound 1, [5-Chloro-2-methoxy-4-(4-methylamino-5-trifluoromethyl-pyrimidin-2-ylamino)-phenyl]-[4-(2-methoxy-ethyl)-piperazin-1-yl]-methanone]",4
2,"CNc1nc(Nc2cc(C)c(C(=O)N3CCOCC3)cc2Cl)ncc1C(F)(F)F [Compound 2, [5-Chloro-2-methyl-4-(4-methylamino-5-trifluoromethyl-pyrimidin-2-ylamino)-phenyl]-morpholin-4-yl-methanone]",7
3,"CNc1nc(Nc2cc(C)c(C(=O)N3CCOCC3)cc2OC)ncc1C(F)(F)F [Compound 3, [5-Methoxy-2-methyl-4-(4-methylamino-5-trifluoromethyl-pyrimidin-2-ylamino)-phenyl]-morpholin-4-yl-methanone]",1.43
4,"CNc1nc(Nc2cc(F)c(C(=O)N3CCN4CCCC4C3)cc2OC)ncc1C(F)(F)F (stereo not drawn) [Compound 4, [2-Fluoro-5-methoxy-4-(4-methylamino-5-trifluoromethyl-pyrimidin-2-ylamino)-phenyl]-(hexahydro-pyrrolo[1,2-a]pyrazin-2-yl)-methanone]",3.41
5,"CNc1nc(Nc2cc(F)c(C(=O)N3C[C@H]4CC[C@@H](C3)O4)cc2OC)ncc1C(F)(F)F [Compound 5, [2-Fluoro-5-methoxy-4-(4-methylamino-5-trifluoromethyl-pyrimidin-2-ylamino)-phenyl]-(1S,5R)-8-oxa-3-aza-bicyclo[3.2.1]oct-3-yl-methanone]",1.78
6,"CCNc1nc(Nc2cc(F)c(C(=O)N3C[C@H]4CC[C@@H](C3)O4)cc2OC)ncc1C(F)(F)F [Compound 6, [4-(4-Ethylamino-5-trifluoromethyl-pyrimidin-2-ylamino)-2-fluoro-5-methoxy-phenyl]-(1S,5R)-8-oxa-3-aza-bicyclo[3.2.1]oct-3-yl-methanone]",0.501
7,"CNc1nc(Nc2cc(F)c(C(=O)N(C)C3CCN(C)CC3)cc2OC)ncc1C(F)(F)F [Compound 7, 2-Fluoro-5-methoxy-N-methyl-4-(4-methylamino-5-trifluoromethyl-pyrimidin-2-ylamino)-N-(1-methyl-piperidin-4-yl)-benzamide]",7.55
8,"CNc1nc(Nc2cc(F)c(C(=O)N3CCC(N4CCOCC4)CC3)cc2OC)ncc1C(F)(F)F [Compound 8, [2-Fluoro-5-methoxy-4-(4-methylamino-5-trifluoromethyl-pyrimidin-2-ylamino)-phenyl]-(4-morpholin-4-yl-piperidin-1-yl)-methanone]",0.7
9,"COc1nc(Nc2ccc(C(=O)N3CCOCC3)cc2O)ncc1Cl [Compound 9, [4-(5-Chloro-4-methoxy-pyrimidin-2-ylamino)-3-hydroxy-phenyl]-morpholin-4-yl-methanone]",120
10,"CNc1nc(Nc2cc(O)c(C(=O)N3CCOCC3)cc2Cl)ncc1C(F)(F)F [Compound 10, [5-Chloro-2-hydroxy-4-(4-methylamino-5-trifluoromethyl-pyrimidin-2-ylamino)-phenyl]-morpholin-4-yl-methanone]",11.6
11,"CNc1nc(Nc2cc(F)c(C(=O)N3C[C@@H]4C[C@H]3CO4)cc2OC)ncc1C(F)(F)F [Compound 11, [2-Fluoro-5-methoxy-4-(4-methylamino-5-trifluoromethyl-pyrimidin-2-ylamino)-phenyl]-(1S,4S)-2-oxa-5-aza-bicyclo[2.2.1]hept-5-yl-methanone]",2.1
12,"CNc1nc(Nc2ccc(C(=O)N3CCOCC3)c(F)c2F)ncc1C(F)(F)F [Compound 12, [2,3-Difluoro-4-(4-methylamino-5-trifluoromethyl-pyrimidin-2-ylamino)-phenyl]-morpholin-4-yl-methanone]",13.5
13,"CNc1nc(Nc2ccc(C(=O)N3CCOCC3)c(F)c2F)ncc1Cl [Compound 13, [4-(5-Chloro-4-methylamino-pyrimidin-2-ylamino)-2,3-difluoro-phenyl]-morpholin-4-yl-methanone]",14.5

# The remaining lines, values ahead:
row,Ki [nM],SMILES
1,0.59,"CCNc1nc(Nc2cc(F)c(C(=O)N3C[C@@H]4C[C@H]3CO4)cc2OC)ncc1C(F)(F)F [Compound 14, [4-(4-Ethylamino-5-trifluoromethyl-pyrimidin-2-ylamino)-2-fluoro-5-methoxy-phenyl]-(1S,4S)-2-oxa-5-aza-bicyclo[2.2.1]hept-5-yl-methanone]"
2,2.55,"CNc1nc(Nc2cc(OC)c(C(=O)N3C[C@@H]4C[C@H]3CO4)cc2Cl)ncc1C(F)(F)F [Compound 15, [5-Chloro-2-methoxy-4-(4-methylamino-5-trifluoromethyl-pyrimidin-2-ylamino)-phenyl]-(1S,4S)-2-oxa-5-aza-bicyclo[2.2.1]hept-5-yl-methanone]"
3,24.2,"CNc1nc(Nc2cc(F)c(C(=O)N3CCOCC3)cc2F)ncc1C(F)(F)F [Compound 16, [2,5-Difluoro-4-(4-methylamino-5-trifluoromethyl-pyrimidin-2-ylamino)-phenyl]-morpholin-4-yl-methanone]"
4,35.6,"CNc1nc(Nc2cc(F)c(C(=O)N3CCOCC3)cc2F)ncc1Cl [Compound 17, [4-(5-Chloro-4-methylamino-pyrimidin-2-ylamino)-2,5-difluoro-phenyl]-morpholin-4-yl-methanone]"
5,0.429,"CCNc1nc(Nc2cc(F)c(C(=O)NCC(C)(C)O)cc2OC)ncc1C(F)(F)F [Compound 18, 4-(4-Ethylamino-5-trifluoromethyl-pyrimidin-2-ylamino)-2-fluoro-N-(2-hydroxy-2-methyl-propyl)-5-methoxy-benzamide]"
6,1.94,"CCNc1nc(Nc2cc(F)c(C(=O)N(C)CC(C)(C)O)cc2OC)ncc1C(F)(F)F [Compound 19, 4-(4-Ethylamino-5-trifluoromethyl-pyrimidin-2-ylamino)-2-fluoro-N-(2-hydroxy-2-methyl-propyl)-5-methoxy-N-methyl-benzamide]"
7,3.12,"CNc1nc(Nc2cc(OC)c(C(=O)N3CC(N4CCOCC4)C3)cc2Cl)ncc1C(F)(F)F [Compound 20, [5-Chloro-2-methoxy-4-(4-methylamino-5-trifluoromethyl-pyrimidin-2-ylamino)-phenyl]-(3-morpholin-4-yl-azetidin-1-yl)-methanone]"
8,0.371,"CCNc1nc(Nc2ccc(C(=O)NC(C)(C)C)cc2OC)ncc1C(F)(F)F [Compound 21, N-tert-Butyl-4-(4-ethylamino-5-trifluoromethyl-pyrimidin-2-ylamino)-3-methoxy-benzamide]"
9,20.9,"CNc1nc(Nc2ccc(C(=O)N3CCOCC3)cc2F)ncc1C(F)(F)F [Compound 22, [3-Fluoro-4-(4-methylamino-5-trifluoromethyl-pyrimidin-2-ylamino)-phenyl]-morpholin-4-yl-methanone]"
10,4.09,"CNc1nc(Nc2cc(OC)c(C(=O)N3CCN(C4COC4)CC3)cc2Cl)ncc1C(F)(F)F [Compound 23, [5-Chloro-2-methoxy-4-(4-methylamino-5-trifluoromethyl-pyrimidin-2-ylamino)-phenyl]-(4-oxetan-3-yl-piperazin-1-yl)-methanone]"
11,6.67,"CNc1nc(Nc2cc(OC)c(C(=O)N3CCC(F)(F)C3)cc2Cl)ncc1C(F)(F)F [Compound 24, [5-Chloro-2-methoxy-4-(4-methylamino-5-trifluoromethyl-pyrimidin-2-ylamino)-phenyl]-(3,3-difluoro-pyrrolidin-1-yl)-methanone]"

# Same assay, conditions: Table 6 compounds (formula II/III, fused ring)
row,SMILES,Ki [nM]
1,"CNc1nc(Nc2cc(C)c(C(=O)N3CCOCC3)cc2Cl)ncc1C(F)(F)F [Compound 2, [5-Chloro-2-methyl-4-(4-methylamino-5-trifluoromethyl-pyrimidin-2-ylamino)-phenyl]-morpholin-4-yl-methanone]",0.31
2,"CNc1nc(Nc2cc(C)c(C(=O)N3CCOCC3)cc2OC)ncc1C(F)(F)F [Compound 3, [5-Methoxy-2-methyl-4-(4-methylamino-5-trifluoromethyl-pyrimidin-2-ylamino)-phenyl]-morpholin-4-yl-methanone]",1.08
3,CCNc1nc(Nc2ccc(C(=O)N3CCC(F)(F)C3)c3c2OCCO3)ncc1C(F)(F)F [Compound 6],0.636
